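All cell lines were grown in 96-well plates and treated with compound for 48 hours. At the GI50, growth is halved.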 The source made the active and inactive calls. Cut-off read from the data, not from the text of the source: active = GI50 up to about 1.1 µM and inactive = higher.
Experiments:
Assay in all cases: NCI tumour cell line growth inhibition, 48 h
UO-31 = tested on: UO-31
SNB-19 = tested on: SNB-19
SF-295 = tested on: SF-295
NCI/ADR-RES = tested on: NCI/ADR-RES
786-0 = tested on: 786-0
SNB-75 = tested on: SNB-75
MDA-N = tested on: MDA-N
PC-3 = tested on: PC-3
COLO 205 = tested on: COLO 205
M14 = tested on: M14
OVCAR-5 = tested on: OVCAR-5
BT-549 = tested on: BT-549
SK-MEL-2 = tested on: SK-MEL-2
SF-539 = tested on: SF-539
A549 = tested on: A549
HL-60 = tested on: HL-60
SK-OV-3 = tested on: SK-OV-3
U-251 = tested on: U-251
UACC-62 = tested on: UACC-62
MDA-MB-435 = tested on: MDA-MB-435

Structure (SMILES)	GI50 (UO-31)	GI50 (SNB-19)	GI50 (SF-295)	GI50 (NCI/ADR-RES)	GI50 (786-0)	GI50 (SNB-75)	GI50 (MDA-N)	GI50 (PC-3)	GI50 (COLO 205)	GI50 (M14)	GI50 (OVCAR-5)	GI50 (BT-549)	GI50 (SK-MEL-2)	GI50 (SF-539)	GI50 (A549)	GI50 (HL-60)	GI50 (SK-OV-3)	GI50 (U-251)	GI50 (UACC-62)	GI50 (MDA-MB-435)
CSC1=NS(=O)(=O)c2cc(C(=O)NN(C)C(=O)c3cc4c(cc3Cl)SC(SC)=NS4(=O)=O)c(Cl)cc2S1	> 10 µM (inactive)	> 10 µM (inactive)	> 10 µM (inactive)	> 10 µM (inactive)	> 10 µM (inactive)	> 10 µM (inactive)	> 10 µM (inactive)	> 10 µM (inactive)	> 10 µM (inactive)	> 10 µM (inactive)	> 10 µM (inactive)	> 10 µM (inactive)	> 10 µM (inactive)	> 10 µM (inactive)	> 10 µM (inactive)	> 10 µM (inactive)	> 10 µM (inactive)	> 10 µM (inactive)	–	–
COc1ccc(-c2cc(-c3ccc(Nc4ccnc5cc(C(F)(F)F)ccc45)cc3)nc(N)c2C#N)c2ccccc12	> 100 µM (inactive)	> 100 µM (inactive)	> 100 µM (inactive)	> 100 µM (inactive)	> 100 µM (inactive)	> 100 µM (inactive)	–	> 100 µM (inactive)	> 100 µM (inactive)	> 100 µM (inactive)	> 100 µM (inactive)	36.6 µM (inactive)	> 100 µM (inactive)	> 100 µM (inactive)	> 100 µM (inactive)	70.3 µM (inactive)	> 100 µM (inactive)	> 100 µM (inactive)	> 100 µM (inactive)	> 100 µM (inactive)
N=C(N)NS(=O)(=O)c1ccc(NC(=O)c2cccc3c(O)c4ccccc4nc23)cc1	> 100 µM (inactive)	59.4 µM (inactive)	60.3 µM (inactive)	> 100 µM (inactive)	58.1 µM (inactive)	31.8 µM (inactive)	–	> 100 µM (inactive)	> 100 µM (inactive)	> 100 µM (inactive)	99.3 µM (inactive)	> 100 µM (inactive)	> 100 µM (inactive)	> 78.3 µM (inactive)	> 100 µM (inactive)	> 100 µM (inactive)	58.2 µM (inactive)	48 µM (inactive)	> 100 µM (inactive)	> 100 µM (inactive)
CC(C)(C)OC(=O)NCC(O)CNC(=O)OC(C)(C)C	> 100 µM (inactive)	> 100 µM (inactive)	> 100 µM (inactive)	> 100 µM (inactive)	> 100 µM (inactive)	–	–	> 100 µM (inactive)	> 100 µM (inactive)	> 100 µM (inactive)	> 100 µM (inactive)	> 100 µM (inactive)	–	> 100 µM (inactive)	> 100 µM (inactive)	> 100 µM (inactive)	> 100 µM (inactive)	> 100 µM (inactive)	> 100 µM (inactive)	> 100 µM (inactive)
CCN1C(NCCO)=NS(=O)(=O)c2ccccc21	> 100 µM (inactive)	> 100 µM (inactive)	> 100 µM (inactive)	> 100 µM (inactive)	> 100 µM (inactive)	–	> 100 µM (inactive)	> 100 µM (inactive)	> 100 µM (inactive)	> 100 µM (inactive)	> 100 µM (inactive)	> 100 µM (inactive)	> 100 µM (inactive)	> 100 µM (inactive)	> 100 µM (inactive)	> 100 µM (inactive)	> 100 µM (inactive)	> 100 µM (inactive)	> 100 µM (inactive)	> 100 µM (inactive)
CCOc1ccc(C(=O)/C=C2/Nc3ccccc3N/C2=C/C(=O)c2ccc(OCC)cc2)cc1	> 100 µM (inactive)	> 100 µM (inactive)	> 100 µM (inactive)	–	80 µM (inactive)	–	> 100 µM (inactive)	> 100 µM (inactive)	> 100 µM (inactive)	> 100 µM (inactive)	> 100 µM (inactive)	> 100 µM (inactive)	> 100 µM (inactive)	> 100 µM (inactive)	> 100 µM (inactive)	> 100 µM (inactive)	> 100 µM (inactive)	> 100 µM (inactive)	> 100 µM (inactive)	> 100 µM (inactive)
N#C/C(N)=C(\C#N)NC(=O)C(=O)N/C(C#N)=C(\N)C#N	> 100 µM (inactive)	> 100 µM (inactive)	57.8 µM (inactive)	> 100 µM (inactive)	> 100 µM (inactive)	29.3 µM (inactive)	> 100 µM (inactive)	> 100 µM (inactive)	> 100 µM (inactive)	> 100 µM (inactive)	> 100 µM (inactive)	> 100 µM (inactive)	> 100 µM (inactive)	> 100 µM (inactive)	> 100 µM (inactive)	–	–	> 100 µM (inactive)	> 100 µM (inactive)	> 100 µM (inactive)
CC(C)(C)OC(=O)Cn1ncn(NC(=O)Cc2ccccc2)c1=O	> 10 µM (inactive)	> 10 µM (inactive)	> 10 µM (inactive)	> 10 µM (inactive)	> 10 µM (inactive)	–	> 10 µM (inactive)	> 10 µM (inactive)	> 10 µM (inactive)	> 10 µM (inactive)	> 10 µM (inactive)	> 10 µM (inactive)	–	> 10 µM (inactive)	> 10 µM (inactive)	–	> 10 µM (inactive)	> 10 µM (inactive)	> 10 µM (inactive)	> 10 µM (inactive)
Nc1nc(N)c(C2=CCNCC2)c(=O)[nH]1	> 100 µM (inactive)	> 100 µM (inactive)	> 100 µM (inactive)	> 100 µM (inactive)	> 100 µM (inactive)	> 100 µM (inactive)	–	> 100 µM (inactive)	> 100 µM (inactive)	> 100 µM (inactive)	> 100 µM (inactive)	> 100 µM (inactive)	> 100 µM (inactive)	> 100 µM (inactive)	> 100 µM (inactive)	> 100 µM (inactive)	> 100 µM (inactive)	> 100 µM (inactive)	> 100 µM (inactive)	> 100 µM (inactive)
C=CCCCC1SC2=C(CC)CCCN2C1=O (stereo not given)	67.5 µM (inactive)	73.5 µM (inactive)	64 µM (inactive)	31.6 µM (inactive)	> 100 µM (inactive)	–	70.1 µM (inactive)	45.2 µM (inactive)	54 µM (inactive)	> 100 µM (inactive)	> 100 µM (inactive)	46.3 µM (inactive)	> 100 µM (inactive)	> 100 µM (inactive)	41.6 µM (inactive)	34.4 µM (inactive)	> 100 µM (inactive)	85.1 µM (inactive)	81.3 µM (inactive)	84.3 µM (inactive)
CC1=NN(c2nc(N)nc(CCl)n2)CC1	7.76 µM (inactive)	> 100 µM (inactive)	30.2 µM (inactive)	24.2 µM (inactive)	10.1 µM (inactive)	18.6 µM (inactive)	–	36.2 µM (inactive)	18.5 µM (inactive)	25 µM (inactive)	20 µM (inactive)	31 µM (inactive)	26.6 µM (inactive)	24.5 µM (inactive)	57.7 µM (inactive)	12 µM (inactive)	36.6 µM (inactive)	29.4 µM (inactive)	15.2 µM (inactive)	32 µM (inactive)
Cc1ccc(S(=O)(=O)N2CCSCCN(S(=O)(=O)c3ccc(C)cc3)CCN(S(=O)(=O)c3ccc(C)cc3)CC2)cc1	92.7 µM (inactive)	29.2 µM (inactive)	26.4 µM (inactive)	> 100 µM (inactive)	16.7 µM (inactive)	–	> 100 µM (inactive)	–	> 100 µM (inactive)	> 100 µM (inactive)	> 100 µM (inactive)	27.8 µM (inactive)	25.9 µM (inactive)	17.6 µM (inactive)	> 100 µM (inactive)	> 100 µM (inactive)	30.1 µM (inactive)	20 µM (inactive)	> 100 µM (inactive)	> 100 µM (inactive)
CC1=C(c2ccccc2)NC(=S)C(C)C(c2ccccc2)=N1 (stereo not given)	19.6 µM (inactive)	> 100 µM (inactive)	29.1 µM (inactive)	22.8 µM (inactive)	74.5 µM (inactive)	65.6 µM (inactive)	16.9 µM (inactive)	–	30.9 µM (inactive)	–	> 100 µM (inactive)	23.7 µM (inactive)	–	16.3 µM (inactive)	40.1 µM (inactive)	12.6 µM (inactive)	> 100 µM (inactive)	55.6 µM (inactive)	33.7 µM (inactive)	18.7 µM (inactive)
COC(=O)[C@H](Cc1ccccc1)NC(=O)N(CCC#N)CCCCN(CCC#N)C(=O)N[C@@H](Cc1ccccc1)C(=O)OC	> 100 µM (inactive)	> 100 µM (inactive)	> 100 µM (inactive)	> 100 µM (inactive)	> 100 µM (inactive)	> 27.2 µM (inactive)	> 100 µM (inactive)	> 100 µM (inactive)	> 100 µM (inactive)	> 100 µM (inactive)	> 100 µM (inactive)	> 100 µM (inactive)	> 100 µM (inactive)	–	> 100 µM (inactive)	–	> 100 µM (inactive)	> 100 µM (inactive)	> 100 µM (inactive)	> 100 µM (inactive)
CCN(CC)CCC(=O)/C=C/c1ccc(Cl)c(Cl)c1	–	5.79 µM (inactive)	> 10 µM (inactive)	1.99 µM (inactive)	3.31 µM (inactive)	–	2.63 µM (inactive)	4.31 µM (inactive)	3.85 µM (inactive)	3.52 µM (inactive)	7.93 µM (inactive)	4.49 µM (inactive)	8.55 µM (inactive)	–	2.78 µM (inactive)	0.302 µM (active)	–	4.76 µM (inactive)	–	3.21 µM (inactive)
